Source: article PMC3855626 (Biochemistry, 2013)
Values joined by “and” are separate entries in the source; they are usually repeats but may differ in a detail not shown here. Equal values may be shown once. Marks after values point to notes of the source that are not given here.

Legend:
[1] = target: M2 D103N (Homo sapiens, UniProt P08172, D103N); assay type: binding
[2] = tested on: M2 D69N; assay type: binding, human
[3] = tested on: M2 D103N + M2 D69N; assay type: binding, human
[4] = target: T1, M2 D69N/D103N (Homo sapiens, UniProt P08172, D103N/D69N); assay type: binding
T1 sequence (P08172 whole entry D69N/D103N, looked up): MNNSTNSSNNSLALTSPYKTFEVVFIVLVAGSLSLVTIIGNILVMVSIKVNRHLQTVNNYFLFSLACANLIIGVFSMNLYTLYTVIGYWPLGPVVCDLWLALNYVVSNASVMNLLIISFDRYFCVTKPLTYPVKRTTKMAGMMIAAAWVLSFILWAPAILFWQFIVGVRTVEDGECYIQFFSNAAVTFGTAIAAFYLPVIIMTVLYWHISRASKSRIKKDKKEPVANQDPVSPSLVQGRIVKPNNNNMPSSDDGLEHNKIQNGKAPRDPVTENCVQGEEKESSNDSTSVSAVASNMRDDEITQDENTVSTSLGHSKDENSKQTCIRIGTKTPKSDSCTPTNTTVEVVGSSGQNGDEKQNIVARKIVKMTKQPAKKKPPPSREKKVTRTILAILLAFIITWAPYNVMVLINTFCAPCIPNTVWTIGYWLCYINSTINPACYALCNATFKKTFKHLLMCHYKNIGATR

[5] = tested on: M3 D148N; assay type: binding, human
[6] = tested on: M3 D114N; assay type: binding, human
[7] = tested on: M3 D148N + M3 D114N; assay type: binding, human
[8] = target: T2, M3 D114N/D148N (Homo sapiens, UniProt P20309, D114N/D148N); assay type: binding
T2 sequence (P20309 whole entry D114N/D148N, looked up): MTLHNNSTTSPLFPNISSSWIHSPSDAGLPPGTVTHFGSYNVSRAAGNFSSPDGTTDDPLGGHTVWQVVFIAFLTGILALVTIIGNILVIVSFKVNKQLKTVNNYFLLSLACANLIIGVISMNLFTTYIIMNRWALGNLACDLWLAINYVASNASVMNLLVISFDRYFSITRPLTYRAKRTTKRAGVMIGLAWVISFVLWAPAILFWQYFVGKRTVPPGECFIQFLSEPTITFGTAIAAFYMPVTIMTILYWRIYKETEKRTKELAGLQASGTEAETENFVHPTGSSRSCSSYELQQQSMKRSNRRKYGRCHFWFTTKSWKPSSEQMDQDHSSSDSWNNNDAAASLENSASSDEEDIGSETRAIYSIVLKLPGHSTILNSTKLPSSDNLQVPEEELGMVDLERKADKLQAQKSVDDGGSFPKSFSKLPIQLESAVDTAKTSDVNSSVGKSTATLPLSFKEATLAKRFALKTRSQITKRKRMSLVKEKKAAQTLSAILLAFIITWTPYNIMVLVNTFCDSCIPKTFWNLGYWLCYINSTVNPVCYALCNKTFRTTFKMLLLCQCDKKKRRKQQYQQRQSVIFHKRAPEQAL

[9] = tested on: M4 D112N; assay type: binding, human
[10] = tested on: M4 D78N; assay type: binding, human
[11] = tested on: M4 D1 12N + M4 D78N; assay type: binding, human
[12] = target: T3, M4 D78N/D112N (Homo sapiens, UniProt P08173, D112N/D78N); assay type: binding
T3 sequence (P08173 whole entry D78N/D112N, looked up): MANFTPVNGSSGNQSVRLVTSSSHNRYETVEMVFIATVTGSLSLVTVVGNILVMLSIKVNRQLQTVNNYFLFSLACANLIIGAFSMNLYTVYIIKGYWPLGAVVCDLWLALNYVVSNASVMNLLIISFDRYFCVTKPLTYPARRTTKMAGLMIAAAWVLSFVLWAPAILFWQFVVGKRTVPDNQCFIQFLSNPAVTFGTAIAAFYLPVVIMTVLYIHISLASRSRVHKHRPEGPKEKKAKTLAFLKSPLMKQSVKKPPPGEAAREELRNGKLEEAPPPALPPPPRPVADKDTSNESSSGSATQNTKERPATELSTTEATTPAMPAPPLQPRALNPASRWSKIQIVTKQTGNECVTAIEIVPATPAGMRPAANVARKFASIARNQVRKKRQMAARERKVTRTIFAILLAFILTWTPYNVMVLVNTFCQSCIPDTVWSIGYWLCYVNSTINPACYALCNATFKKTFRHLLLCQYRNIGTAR

[13] = target: wild type M4 receptor (Homo sapiens, UniProt P08173); test: biochemical; assay type: binding
Sequence of wild type M4 receptor (P08173 whole entry): as the sequence (P08173 whole entry D78N/D112N, looked up) above, with N78D, N112D counted along it

[14] = target: T1, M2 D69N/D103N; assay type: binding; remark: listed apart in the source
[15] = target: T3, M4 D78N/D112N; assay type: binding; remark: listed apart in the source
[16] = target: T1, M2 D69N/D103N; test: biochemical; assay type: binding
[17] = target: T3, M4 D78N/D112N; test: biochemical; assay type: binding
[18] = target: wild type M1 muscarinic receptors (Homo sapiens, UniProt P11229); assay type: binding
Sequence of wild type M1 muscarinic receptors (P11229 whole entry): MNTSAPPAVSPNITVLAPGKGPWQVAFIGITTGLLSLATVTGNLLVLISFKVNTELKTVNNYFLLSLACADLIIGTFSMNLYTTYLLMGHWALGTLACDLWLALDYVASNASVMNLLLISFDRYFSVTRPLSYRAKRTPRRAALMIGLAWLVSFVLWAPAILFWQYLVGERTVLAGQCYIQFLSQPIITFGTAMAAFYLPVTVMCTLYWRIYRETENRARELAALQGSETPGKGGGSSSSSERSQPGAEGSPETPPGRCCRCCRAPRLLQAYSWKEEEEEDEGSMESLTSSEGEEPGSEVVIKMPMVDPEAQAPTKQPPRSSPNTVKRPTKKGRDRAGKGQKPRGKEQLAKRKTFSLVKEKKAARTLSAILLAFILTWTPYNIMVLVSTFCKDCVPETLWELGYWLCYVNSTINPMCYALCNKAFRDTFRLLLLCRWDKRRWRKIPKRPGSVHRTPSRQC

[19] = target: wild type M2 muscarinic receptors (Homo sapiens, UniProt P08172); assay type: binding
Sequence of wild type M2 muscarinic receptors (P08172 whole entry): as the sequence (P08172 whole entry D69N/D103N, looked up) above, with N69D, N103D counted along it

[20] = tested on: cerebral muscarinic receptors; assay type: binding, rat
[21] = tested on: M3 receptors; assay type: binding, human
[22] = tested on: M4 receptors; assay type: binding, human
[23] = tested on: M1 – M4 muscarinic receptors; assay type: binding, human
[24] = tested on: guinea pig ileum; conditions: cited from earlier work
[25] = target: M2 wild type (Homo sapiens, UniProt P08172); assay type: binding
Sequence of M2 wild type (P08172 whole entry): as the sequence (P08172 whole entry D69N/D103N, looked up) above, with N69D, N103D counted along it

[26] = tested on: wild type M4 receptors; assay type: binding, human
[27] = target: T2, M3 D114N/D148N
[28] = read-out: inhibition of [3H]NMS binding

Sequence of M2 D103N (P08172 whole entry D103N, looked up): as the sequence (P08172 whole entry D69N/D103N, looked up) above, with N69D counted along it

CN(CC#CCOC(=O)Nc1cccc(Cl)c1)CCBr [BR384, 4-[(2-bromoethyl)methyl-amino]-2-butynyl N-(3-chlorophenyl)carbamate]
Δ log K1 [1]: 1.23 ± 0.26 | increase in affinity relative to wild type [2]: about 30 fold | Δ log K1 [2]: −1.39 ± 0.35 | Δ log K1 [3]: −0.17 ± 0.43 | Δ log K1 [4]: −0.25 ± 0.25 | Δ log K1 [5]: 1.17 ± 0.07 | increase in affinity relative to wild type [6]: ~5 fold | Δ log K1 [6]: −0.69 ± 0.02 | Δ log K1 [7]: 0.48 ± 0.08 | Δ log K1 [8]: 0.75 ± 0.12 | Δ log K1 [9]: 0.65 ± 0.13 | increase in affinity relative to wild type [10]: about 30 fold | Δ log K1 [10]: −1.27 ± 0.11 | Δ log K1 [11]: −0.62 ± 0.17 | Δ log K1 [12]: 0.69 ± 0.32 ^c | average estimate of k1 [13]: 0.82 min⁻¹ | b (proportion of receptors that can bind [3H]NMS but not be alkylated) [13]: 7.7 ± 1.8% and 7.7% | k1 (rate constant for alkylation) [13]: 0.93 ± .020 min⁻¹ | rate constant (k1) [13]: 0.99 ± 0.045 min⁻¹ and 1.05 ± 0.10 min⁻¹ and 0.75 ± 0.06 min⁻¹ and 0.74 ± 0.086 min⁻¹ | Kd ([13]; average estimate of log K1): 8.71 µM | Kd ([13]; log K1 (dissociation constant of the aziridinium ion)): 8.91 µM | Kd ([13]; log dissociation constant (log K1)): 12.3 µM and 7.94 µM and 6.76 µM | alkylation [14]: 48 ± 4.2% | alkylation [15]: 44 ± 0.6% | IC50 [16]: 28.8 µM | inhibition at 300 µM [16, 28]: 97 ± 1.3% | IC50 [17]: 69.2 µM | inhibition at 300 µM [17, 28]: 88 ± 0.7% | receptors alkylated after adding the stopping solution [18]: 28% | receptors alkylated after adding the stopping solution [19]: 28% | rate of recovery of [3H]NMS binding [20]: negligible | maximum estimate of b [21]: 0.067 | maximum estimate of b [22]: 0.085 | affinity of the aziridinium ion relative to McN-A-343 [23]: four- to seven-fold higher affinity | contractile action [24]: lack of contractile action

CC(=O)OCC[N+](C)(C)C [Acetylcholine, acetylcholine]
Hill slope of competition curve [25]: 0.69 | affinity relative to the aziridinium ion of AChM [25]: about 15 fold | affinity relative to the aziridinium ion of AChM [26]: five-fold higher affinity | Hill slope of competition curve [27]: 0.56
